Test system: 84 genes related to inflammatory and autoimmune processes
Experiment: Mouse Inflammatory Response and Autoimmunity PCR Array, whole brain
Type: in vivo
Conditions: brain 24 h
Method: Frozen, pulverized whole brain tissue was processed for RNA extraction from a separate cohort of treated and untreated injured animals on days 1 post-injury(CN-105, n = 4; vehicle, n = 3; Control(sham-operated), n = 3). Total RNA was extracted from frozen, pulverized whole brain tissue using RNeasy Lipid Tissue Mini Kit(Qiagen, Valencia, CA). RNA quantity and quality was assessed with the NanoDrop ND-1000 spectrophotometer(NanoDrop Technologies, Inc., Wilmington, DE) and by agarose gel electrophoresis. Only samples with a 260/280 ratio between 1.9–2.1, and a 260/230 ratio greater than 2.0, were further processed. First strand complementary DNA(cDNA) was generated from 2 μg total RNA using the RT[2] First strand kit(SABiosciences, Frederick, MD.)
Gene expression was measured using the Mouse Inflammatory Response and Autoimmunity PCR Array(SABiosciences, Frederick, MD), which profiles the expression of 84 genes related to inflammatory and autoimmune processes. RT-PCR was performed according to manufacturer’s instructions Quality of the cDNA and PCR efficiency was verified by housekeeping genes and RT-PCR controls included in the PCR Array.
Raw RT-PCR data were analyzed using the Web-Based PCR Array Data Analysis software(SABiosciences). ΔCt values and ΔΔCt - based fold-change were calculated from raw threshold cycle data, using beta-actin and glyceraldehyde 3-phosphate dehydrogenase(GAPDH) as internal standards for normalization. Fold changes were then normalized against sham-operated controls.

Ac-VSRRR-amide [CN-105]
Il22ra2 ΔCt value, S-CN-105 (sham + CN-105 0.05 mg/kg iv): 1.1E − 04
Il22 ΔCt value, S-CN-105 (sham + CN-105 0.05 mg/kg iv): 4.7E − 04
Il23a ΔCt value, S-CN-105 (sham + CN-105 0.05 mg/kg iv): 8.0E − 05
Il23r ΔCt value, S-CN-105 (sham + CN-105 0.05 mg/kg iv): 1.5E − 04
Itgb2 ΔCt value, S-CN-105 (sham + CN-105 0.05 mg/kg iv): 1.3E − 02
Kng1 ΔCt value, S-CN-105 (sham + CN-105 0.05 mg/kg iv): 1.4E − 05
Lta ΔCt value, S-CN-105 (sham + CN-105 0.05 mg/kg iv): 2.6E − 04
Ltb ΔCt value, S-CN-105 (sham + CN-105 0.05 mg/kg iv): 1.0E − 03
Ly96 ΔCt value, S-CN-105 (sham + CN-105 0.05 mg/kg iv): 7.2E − 03
Myd88 ΔCt value, S-CN-105 (sham + CN-105 0.05 mg/kg iv): 1.1E − 03
Nfatc3 ΔCt value, S-CN-105 (sham + CN-105 0.05 mg/kg iv): 2.1E − 02
Nfkb1 ΔCt value, S-CN-105 (sham + CN-105 0.05 mg/kg iv): 3.1E − 02
Nos2 ΔCt value, S-CN-105 (sham + CN-105 0.05 mg/kg iv): 8.9E − 05
Nr3c1 ΔCt value, S-CN-105 (sham + CN-105 0.05 mg/kg iv): 4.0E − 01
Ripk2 ΔCt value, S-CN-105 (sham + CN-105 0.05 mg/kg iv): 1.1E − 02
Tirap ΔCt value, S-CN-105 (sham + CN-105 0.05 mg/kg iv): 7.8E − 03
Tlr1 ΔCt value, S-CN-105 (sham + CN-105 0.05 mg/kg iv): 1.0E − 03
Tlr2 ΔCt value, S-CN-105 (sham + CN-105 0.05 mg/kg iv): 1.3E − 03
Tlr3 ΔCt value, S-CN-105 (sham + CN-105 0.05 mg/kg iv): 2.3E − 02
Tlr4 ΔCt value, S-CN-105 (sham + CN-105 0.05 mg/kg iv): 3.5E − 03
Tlr5 ΔCt value, S-CN-105 (sham + CN-105 0.05 mg/kg iv): 6.3E − 04
Tlr6 ΔCt value, S-CN-105 (sham + CN-105 0.05 mg/kg iv): 6.2E − 04
Tlr7 ΔCt value, S-CN-105 (sham + CN-105 0.05 mg/kg iv): 2.6E − 03
Tnf ΔCt value, S-CN-105 (sham + CN-105 0.05 mg/kg iv): 3.5E − 05
Tnfsf14 ΔCt value, S-CN-105 (sham + CN-105 0.05 mg/kg iv): 1.3E − 04
Tollip ΔCt value, S-CN-105 (sham + CN-105 0.05 mg/kg iv): 3.2E − 01
Bcl6 fold change S-CN-105/S-v (sham CN-105 vs sham vehicle): 1.3
C3ar1 fold change S-CN-105/S-v (sham CN-105 vs sham vehicle): 1.2
C3 fold change S-CN-105/S-v (sham CN-105 vs sham vehicle): 1.7
C4b fold change S-CN-105/S-v (sham CN-105 vs sham vehicle): 2.0
Ccl2 fold change S-CN-105/S-v (sham CN-105 vs sham vehicle): 1.4
Ccl3 fold change S-CN-105/S-v (sham CN-105 vs sham vehicle): 1.6
Ccl4 fold change S-CN-105/S-v (sham CN-105 vs sham vehicle): 1.0
Ccl5 fold change S-CN-105/S-v (sham CN-105 vs sham vehicle): 1.2
Ccl7 fold change S-CN-105/S-v (sham CN-105 vs sham vehicle): 1.3
Ccl8 fold change S-CN-105/S-v (sham CN-105 vs sham vehicle): 2.8
Ccl11 fold change S-CN-105/S-v (sham CN-105 vs sham vehicle): 3.2
Ccl12 fold change S-CN-105/S-v (sham CN-105 vs sham vehicle): 1.8
Ccl17 fold change S-CN-105/S-v (sham CN-105 vs sham vehicle): 1.6
Ccl19 fold change S-CN-105/S-v (sham CN-105 vs sham vehicle): 1.5
Ccl20 fold change S-CN-105/S-v (sham CN-105 vs sham vehicle): 4.4
Ccl22 fold change S-CN-105/S-v (sham CN-105 vs sham vehicle): 3.1
Ccl24 fold change S-CN-105/S-v (sham CN-105 vs sham vehicle): 3.0
Ccl25 fold change S-CN-105/S-v (sham CN-105 vs sham vehicle): 2.6
Ccr1 fold change S-CN-105/S-v (sham CN-105 vs sham vehicle): −1.1
Ccr2 fold change S-CN-105/S-v (sham CN-105 vs sham vehicle): 2.1
Ccr3 fold change S-CN-105/S-v (sham CN-105 vs sham vehicle): 1.2
Ccr4 fold change S-CN-105/S-v (sham CN-105 vs sham vehicle): 1.5
Ccr7 fold change S-CN-105/S-v (sham CN-105 vs sham vehicle): 1.8
Cd40 fold change S-CN-105/S-v (sham CN-105 vs sham vehicle): 1.5
Cebpb fold change S-CN-105/S-v (sham CN-105 vs sham vehicle): 1.6
Csf1 fold change S-CN-105/S-v (sham CN-105 vs sham vehicle): 1.7
Cxcl1 fold change S-CN-105/S-v (sham CN-105 vs sham vehicle): 2.7
Cxcl2 fold change S-CN-105/S-v (sham CN-105 vs sham vehicle): 4.2
Cxcl3 fold change S-CN-105/S-v (sham CN-105 vs sham vehicle): 0.8
Cxcl5 fold change S-CN-105/S-v (sham CN-105 vs sham vehicle): 1.7
Cxcl9 fold change S-CN-105/S-v (sham CN-105 vs sham vehicle): 1.5
Cxcl10 fold change S-CN-105/S-v (sham CN-105 vs sham vehicle): 2.1
Cxcl11 fold change S-CN-105/S-v (sham CN-105 vs sham vehicle): 3.8
Cxcr4 fold change S-CN-105/S-v (sham CN-105 vs sham vehicle): 1.5
Fasl fold change S-CN-105/S-v (sham CN-105 vs sham vehicle): 0.9
Flt3l fold change S-CN-105/S-v (sham CN-105 vs sham vehicle): 1.5
Fos fold change S-CN-105/S-v (sham CN-105 vs sham vehicle): 1.6
Hdac4 fold change S-CN-105/S-v (sham CN-105 vs sham vehicle): 1.5
Ifng fold change S-CN-105/S-v (sham CN-105 vs sham vehicle): 0.8
Il1a fold change S-CN-105/S-v (sham CN-105 vs sham vehicle): 1.4
Il1b fold change S-CN-105/S-v (sham CN-105 vs sham vehicle): 1.8
Il1r1 fold change S-CN-105/S-v (sham CN-105 vs sham vehicle): 2.6
Il1rap fold change S-CN-105/S-v (sham CN-105 vs sham vehicle): 1.5
Il6 fold change S-CN-105/S-v (sham CN-105 vs sham vehicle): −1.3
Il6ra fold change S-CN-105/S-v (sham CN-105 vs sham vehicle): 1.5
Il7 fold change S-CN-105/S-v (sham CN-105 vs sham vehicle): 3.1
Il8rb fold change S-CN-105/S-v (sham CN-105 vs sham vehicle): 7.3
Il10 fold change S-CN-105/S-v (sham CN-105 vs sham vehicle): 5.7
Il10rb fold change S-CN-105/S-v (sham CN-105 vs sham vehicle): 2.0
Il18 fold change S-CN-105/S-v (sham CN-105 vs sham vehicle): 2.0
Il22 fold change S-CN-105/S-v (sham CN-105 vs sham vehicle): 10.8
Il22ra2 fold change S-CN-105/S-v (sham CN-105 vs sham vehicle): 4.8
Il23a fold change S-CN-105/S-v (sham CN-105 vs sham vehicle): 3.0
Il23r fold change S-CN-105/S-v (sham CN-105 vs sham vehicle): 1.4
Itgb2 fold change S-CN-105/S-v (sham CN-105 vs sham vehicle): 2.5
Lta fold change S-CN-105/S-v (sham CN-105 vs sham vehicle): 2.3
Ltb fold change S-CN-105/S-v (sham CN-105 vs sham vehicle): 2.0
Ly96 fold change S-CN-105/S-v (sham CN-105 vs sham vehicle): 1.9
Myd88 fold change S-CN-105/S-v (sham CN-105 vs sham vehicle): 1.5
Nfatc3 fold change S-CN-105/S-v (sham CN-105 vs sham vehicle): 2.4
Nfkb1 fold change S-CN-105/S-v (sham CN-105 vs sham vehicle): 1.8
Nos2 fold change S-CN-105/S-v (sham CN-105 vs sham vehicle): 1.0
Nr3c1 fold change S-CN-105/S-v (sham CN-105 vs sham vehicle): 2.0
Ripk2 fold change S-CN-105/S-v (sham CN-105 vs sham vehicle): 1.5
Tirap fold change S-CN-105/S-v (sham CN-105 vs sham vehicle): 2.1
Tlr1 fold change S-CN-105/S-v (sham CN-105 vs sham vehicle): 2.2
Tlr2 fold change S-CN-105/S-v (sham CN-105 vs sham vehicle): 1.4
Tlr3 fold change S-CN-105/S-v (sham CN-105 vs sham vehicle): 1.6
Tlr4 fold change S-CN-105/S-v (sham CN-105 vs sham vehicle): 1.1
Tlr5 fold change S-CN-105/S-v (sham CN-105 vs sham vehicle): 0.9
Tlr6 fold change S-CN-105/S-v (sham CN-105 vs sham vehicle): 1.3
Tlr7 fold change S-CN-105/S-v (sham CN-105 vs sham vehicle): 1.6
Tnf fold change S-CN-105/S-v (sham CN-105 vs sham vehicle): 1.3
Tnfsf14 fold change S-CN-105/S-v (sham CN-105 vs sham vehicle): 5.2
Tollip fold change S-CN-105/S-v (sham CN-105 vs sham vehicle): 1.9
downregulation of gene expression, sham CN-105 vs sham vehicle (sham mice, 0.05 mg/kg): No downregulation of gene expression was observed

Source: article PMC5399447, “Neuroprotective pentapeptide CN-105 is associated with reduced sterile inflammation and improved functional outcomes in a traumatic brain injury murine model” (Scientific Reports, 2017)
